# Measured values as given in patent publication US10238670B2, “9-aminomethyl minocycline compounds and methods of use thereof in urinary tract infection (UTI) treatment” (Paratek Pharmaceuticals, Inc., priority 2016, dated 2019).
# Where two headings read alike, the source gives them in different places.
# Experiments:
# [1] = In vitro plasma protein binding (ultrafiltration), monkey plasma; assay type: in vitro ADME, monkey (Cynomolgus); settings: 10-10,000 ng/mL, mean±SD, read-out: mean unbound protein fraction (fu) in plasma
# Description: For human binding studies, plasma was obtained from the blood of three healthy male volunteers. Plasma was defrosted from storage at -20° C. before use, and pools of human plasma were used for all studies. Plasma from mouse, rat, and monkey was supplied by Harlan Laboratories Ltd. (Netherlands), Milan […], Switzerland) and Centre de Primatologie ULP (France), respectively. Protein binding was measured using an ultrafiltration method. To asses the suitability of ultrafiltration, the recovery and free permeation of [^14C]-labelled Compound 1 in PBS buffer were investigated. […] Three 1 mL aliquots per concentration were introduced into […]® devices and spun for 1 min at 2000 g (filtrate ≤500 μL). Samples of the spiked solutions, the filtrate and retentate were quantified by LSC; volumes were determined by weighing. The free permeation of the test compound in PBS was evaluated as follows: Ratio=[Cuf/Cr] with Cuf being the concentration in the ultrafiltrate (ng/mL) and Cr the concentration in the retentate (ng/mL). […] Specifically, concentrations of Compound 1 was determined by an UPLC-MS/MS method. […] Standards and quality control samples were prepared on the day of analysis by adding a 20 μL aliquot of an appropriate standard or QC spiking solution in methanol. A 25 μL aliquot of the internal standard (at 200 ng/mL in methanol) was added to each well except blanks. […] Samples were processed using protein precipitation. A 0.5 mL aliquot of an acetonitrile/ethanol/acetic acid mixture (90:10:0.1, v:v:v) was added to each sample; samples were mixed using a vortex mixer for 10 minutes, and centrifuged 3800 rpm (approximately 2500×g) for 10 min at 10° C. […] The ions monitored for Compound 1 was the parent [M+H]^+ ion at m/z 557.3.0; the product ions at m/z 453.4. […] The quantification was performed using Analyst software and Watson LIMS version 7.2.0.01. Concentrations in QC and study samples were calculated from the resulting peak area ratios and interpolation from the regression equations of the respective calibration curves. The lower limit of quantitation was 5.0 ng/mL for Compound 1.
# [2] = Pharmacokinetics of Compound 1 in mouse plasma versus kidney; assay type: in vivo
# [3] = test system: Citrobacter spp.; experiment: In vitro MIC, 2010 surveillance isolates; assay type: cell-based; settings: N=253
# [4] = test system: Acinetobacter; experiment: In vitro MIC, 2010 surveillance isolates; assay type: cell-based; settings: N=952
# [5] = test system: P. aeruginosa; experiment: In vitro MIC (Data from CMI 07); assay type: cell-based; settings: N=22
# [6] = test system: S. saprophyticus; experiment: In vitro MIC90 against common uncomplicated UTI pathogens; assay type: cell-based; settings: Staphylococcus saprophyticus
# Description: The minimum inhibitory concentrations for at least 90% of the isolates (MIC90) tested for Compound 1 against these common pathogens are 1 μg/mL for S. saprophyticus, 2 μg/mL for ESBL-negative E. coli, and 4 μg/mL for ESBL-producing E. coli.
# [7] = test system: E. coli (ATCC 25922) biofilm; experiment: MBEC assay, planktonic adhesion to 6, 12, 24 hour biofilms under sub-MIC treatment; assay type: cell-based, Escherichia coli
# Description: The MBEC™ assay (formerly the Calgary biofilm device; Innovotech Inc., Canada) is a well-established high throughput assay for assessment of anti-biofilm activity of test agents in a 96-well format. Within this assay, the biofilm is formed on the plastic pegs of the plate lid. After inoculated media is introduced to the wells of the 96-well plate, the plate is placed in a shaking incubator to generate the necessary shear force for biofilm growth on the pegs. Following a suitable incubation time, the individual biofilms can be treated with varying concentrations of test agents (challenge plate). After the desired treatment time, the remaining biofilm-associated bacteria are retrieved from the pegs through sonication (recovery plate). Serial dilution and/or plating of the recovered bacterial suspension allow for the quantification of test agents' efficacy against pre-formed biofilms. Additionally, readout of the challenge plate from the biofilm treatment can be used to determine MIC values of test agents. The absence of growth in the recovery plate indicates complete biofilm eradication and the lowest concentration of a test agent that achieves this is designated as the minimum biofilm eradication concentration (MBEC). […]
# [8] = complicated skin and skin structure infection; cited from earlier work
# [9] = Phase 1 studies, plasma pharmacokinetics (IV and oral)
smiles,measurement,setting,value
"CN(C)c1cc(CNCC(C)(C)C)c(O)c2c1C[C@H]1C[C@H]3[C@H](N(C)C)C(O)=C(C(N)=O)C(=O)[C@@]3(O)C(O)=C1C2=O [Compound 1, 9-[(2,2-dimethyl-propylamino)-methyl]-minocycline]",fraction unbound,[1],0.788 ± 0.0726
same,Kp,"[2]; kidney/plasma, sc, Subcutaneous, 4.0 mg/kg, read-out: AUC Ratio Kidney:Plasma",4.2
same,AUC(0-inf),"[2]; plasma, sc, Subcutaneous, 4.0 mg/kg",2820 ng·h/mL
same,Kp,"[2]; tissues including kidney, relative to plasma, subcutaneous, 4 mg/kg, species not printed at b200, read-out: concentrations in tissues including the kidneys relative to plasma",~4
same,Cumulative % Inhibition at MIC,[3]; MIC 1 μg/ml,44.7%
same,Cumulative % Inhibition at MIC,[3]; MIC 2 μg/ml,79.1%
same,Cumulative % Inhibition at MIC,[3]; MIC 4 μg/ml,93.3%
same,Cumulative % Inhibition at MIC,[3]; MIC 8 μg/ml,97.6%
same,Cumulative % Inhibition at MIC,[3]; MIC 16 μg/ml,100%
same,Cumulative % Inhibition at MIC,"[3]; MIC ≤0.5 μg/ml, listed as head image P00016",14.6%
same,Cumulative % Inhibition at MIC,[4]; MIC 1 μg/ml,44.1%
same,Cumulative % Inhibition at MIC,[4]; MIC 2 μg/ml,73.1%
same,Cumulative % Inhibition at MIC,[4]; MIC 4 μg/ml,93.5%
same,Cumulative % Inhibition at MIC,[4]; MIC 8 μg/ml,98.5%
same,Cumulative % Inhibition at MIC,[4]; MIC 16 μg/ml,99.5%
same,Cumulative % Inhibition at MIC,"[4]; MIC ≤0.5 μg/ml, listed as head image P00018",31.1%
same,Cumulative % Inhibition at MIC,[4]; MIC ≥32 μg/ml,100%
same,Cumulative % Inhibition at MIC,[5]; MIC 1 μg/ml,0%
same,Cumulative % Inhibition at MIC,[5]; MIC 2 μg/ml,0%
same,Cumulative % Inhibition at MIC,[5]; MIC 4 μg/ml,0%
same,Cumulative % Inhibition at MIC,[5]; MIC 8 μg/ml,0%
same,Cumulative % Inhibition at MIC,[5]; MIC 16 μg/ml,9.1%
same,Cumulative % Inhibition at MIC,"[5]; MIC ≤0.5 μg/ml, Data from CMI 07",0%
same,Cumulative % Inhibition at MIC,[5]; MIC ≥32 μg/ml,100%
same,MIC90,[6],1 µg/mL
same,reduction in total biofilm-associated bacteria relative to controls,"[7]; 24 hour biofilms, 4% of the MIC (0.046 μg/mL), planktonic bacteria present",reduced by about a log
same,adhesion of planktonic bacteria to biofilms,"[7]; sub-MIC concentrations, 6, 12, 24 hour biofilms",do not promote additional adhesion of planktonic bacteria
same,clinical efficacy and tolerability,[8],comparable to linezolid
same,bioequivalence of tablet and IV dose,[9]; 300 mg dose of tablet,bioequivalent to a 100 mg IV dose
same,half-life,"[9]; human, in vivo",~18 h
same,Cmax,"[9]; human, in vivo, iv, 100 mg",~1800 ng/mL
same,"exposure based on plasma concentrations, higher at steady-state than after a single dose",[9]; steady state vs single dose,approximately 50%
same,steady state AUC (IV and oral) and Cmax (oral) relative to single IV or oral dose,[9]; steady state vs single dose,approximately 1.5 ×
